The values that follow come from patent US11789013B2, “Componential analyzer, drug efficacy analyzer, and analysis method” (Hitachi High-Tech Corporation, priority 2013, dated 2023).

The series concerns hepatocytes. Description: Drug distribution / efflux fraction analysis in cultured hepatocytes (basolateral efflux, biliary excretion, intracellular fraction). In kind it is in vitro ADME, rat. Particulars: for ratio of the amount of drug excreted into the bile duct to the total amount of drug taken up into the cells (BiRD), (B1−B2)/(C1+C2): pattern 1, sequences 1 (EGTA disrupted) and 2 (maintained), 37° C.; for ratio of the amount of drug excreted into the bile duct to the total amount of drug taken up into the cells (BiRD), (B1−B2)/(C1+C2) / Sup fraction (first fraction of the basolateral efflux, S1), index for tendency to remain or not to remain in the cells: 30 minutes; for ratio of the amount of drug excreted into the bile duct to the total amount of drug taken up into the cells (BiRD), (B1−B2)/(C1+C2) / ratio of the amount of drug excreted via transporter to the amount of drug excreted to the basolateral side (RexEMTP), (B2-B3)/B2: fluorescence; for ratio of the amount of drug excreted via transporter to the amount of drug excreted to the basolateral side (RexEMTP), (B2-B3)/B2: pattern 1, step 5, 30 minutes, sequences 2 (37° C.) and 3 (4° C.); for Sup fraction (first fraction of the basolateral efflux, S1), index for tendency to remain or not to remain in the cells: pattern 2 (sum of steps 4, 5, 6 = 100%), step 4, 37° C., in %. The procedure:
Hepatocytes were prepared by in situ collagenase perfusion method. The details are as follows. A rat (5-6 week-old) is anesthetized with pentobarbital and laparotomy is performed to insert a catheter into the portal vein and inject the preperfusion solution (a Ca^2+ and Mg^2+ free Hanks' solution containing EGTA). After confirming that blood is sufficiently removed from the liver, the perfusion is stopped. The perfusate is changed into a collagenase solution to conduct perfusion. In this embodiment, the perfusion is conducted with a Hanks' solution containing 0.05% collagenase, but the collagenase solution is not limited to this. Once confirmed that the tissue between the cells was digested by collagenase, the perfusion is stopped. The liver is excised, sliced in a cooled Hanks' solution, and separated into cells by pipetting. Damaged hepatocytes are removed by centrifugation at 500 G for 5 minutes with an isotonic Percoll solution. The viability of the resultant hepatocytes is determined by the trypan blue-exclusion test. Hepatocytes having a viability of 85% or more are used for culture. Here, hepatocytes having a viability of 85% or more are used for culture, but such culture is, needless to say, not necessarily limited to the condition. In addition, the preparation of hepatocytes is not necessarily limited to that by in situ collagenase perfusion method. The hepatocytes to be used are not limited to those derived from a rat and the strain of rat is not limited. This embodiment uses hepatocytes, but cells are not limited to this.
Hepatocytes prepared by in situ collagenase perfusion method as described above are suspended in a medium. The hepatocytes are suspended at a density of 5×10^5 cells/mL in a medium and plated onto a commercially available culture dish coated with collagen. The density upon plating, the medium, and the culture plate 001 are not particularly limited. The culture plate is illustrated in FIG. 1. A 24 well culture plate having 24 culture regions (wells, 002) is here illustrated, but the culture plate is not limited to this as long as it can contain predetermined cells and containers in other shapes may be used. After plating, culture is started under conditions of 5% CO2 and 37° C. using a CO2 incubator. After 18 hours or more, the first medium change is conducted. Although the medium to be used for culture 18 hours after the plating is not particularly limited, in this embodiment, the medium (FCS−), a medium in which FCS is removed from the medium (10% FCS+), supplemented with Matrigel is used. After this, medium change with the medium (FCS−) is conducted every 24 hours. As described later, testing is conducted under three different conditions (sequences 1, 2, and 3: described in detail in step 5) in step 5, three independent culture plates with the same conditions are prepared at this point. In steps 0 to 4 and step 5, the same testing operations are conducted in all the three sequences.
The culture supernatant of the cells cultured in step 0 for 4 days is removed and 400 μL of Hanks' solution is added as a buffer. The cells are incubated at 37° C. for 10 minutes (FIG. 2, step 1). The type and amount of buffer are not particularly limited.
The buffer is removed, and then 200 μL of 10 μM CDF (a fluorescent reagent) is added to the well. The plate is incubated at 37° C. for 30 minutes and then maintained at 4° C. for 5 minutes (FIG. 2, step 2). The type, concentration, and amount of the reagent are not particularly limited. CDF emits fluorescence and can be therefore easily quantified by a plate reader as a model reagent. The amount of administration, 200 μL, was chosen so that the cells as a whole in the well would be immersed in the reagent. The concentration of CDF may be a concentration conventionally used for a fluorescence assay of cells. This concentration is preferably applied as an amount of the reagent for the detection with a plate reader. […]

In the case of CDF, the “ratio of the amount of drug excreted into the bile duct to the total amount of drug taken up into the cells (BiRD), (B1−B2)/(C1+C2)” value came out at 18.58; the “ratio of the amount of drug excreted via transporter to the amount of drug excreted to the basolateral side (RexEMTP), (B2-B3)/B2” value turned out to be 41.08; the “Sup fraction (first fraction of the basolateral efflux, S1), index for tendency to remain or not to remain in the cells” value amounted to 70.82.
The matching figures for Rhodamine123: 4.92, 52.52 and 39.29.
